Here are results for 57 molecules from ChEMBL document CHEMBL1697723, “A predictive ligand-based Bayesian model for human drug-induced liver injury” (Drug Metab Dispos, 2010).

Starred links: 1 amine or outer side, 2 acyl side, 3 side chain; linkers in the order of their positions; H or OH if unused. Positions of bridges follow the written chain, without caps; N, C: chain ends. Non-standard residues stand in square brackets, D forms with d. Residues, ends and D or L forms follow the SMILES beside them. Chains are numbered I, II in the order given. Actinocin(9to1) = Cc1c2oc3c(C)ccc(C(=O)[*:1])c3nc-2c(C(=O)[*:2])c(N)c1=O; NMeV = CN[C@H](C(=O)O)C(C)C; Sar = CNCC(=O)O

In one data set the test system is Hepatotoxicity. As to the kind of experiment: Human drug-induced liver injury (DILI) modelling dataset from Ekins et al.
Conditions: not given
In the case of `CC(=O)OCC1=C(C(=O)[O-])N2C(=O)[C@@H](NC(=O)CSc3ccncc3)[C@H]2SC1.[Na+]` [CEPHAPIRIN SODIUM], the Hepatotoxicity result is recorded as “DILI negative (test set)”.

For `CC1=C(C(=O)O)N2C(=O)[C@@H](NC(=O)[C@H](N)C3=CCC=CC3)[C@H]2SC1` [CEPHRADINE], the Hepatotoxicity result is “DILI negative (test set)”.

On to `COCc1c(C(C)C)nc(C(C)C)c(/C=C/[C@@H](O)C[C@@H](O)CC(=O)O)c1-c1ccc(F)cc1` [CERIVASTATIN], for which the Hepatotoxicity entry was “DILI positive (test set)”.

On to `C[C@H](CCC(=O)O)[C@H]1CC[C@H]2[C@@H]3[C@H](O)C[C@@H]4C[C@H](O)CC[C@]4(C)[C@H]3CC[C@]12C` [CHENODIOL], for which the Hepatotoxicity result was “DILI positive (training set)”.

For the molecule `CCCCCCCCCCCCCCCC(=O)OC[C@@H](NC(=O)C(Cl)Cl)[C@H](O)c1ccc([N+](=O)[O-])cc1` [CHLORAMPHENICOL PALMITATE], the Hepatotoxicity result is reported as “DILI positive (training set)”.

For the molecule `CCN(CC)CCCC(C)Nc1ccnc2cc(Cl)ccc12.O=P(O)(O)O.O=P(O)(O)O` (configuration not stated) [CHLOROQUINE PHOSPHATE], the Hepatotoxicity entry is on record as “DILI negative (test set)”.

For the molecule `CN(C)CCC(c1ccc(Cl)cc1)c1ccccn1.O=C(O)/C=C\C(=O)O` (configuration not stated) [CHLORPHENIRAMINE MALEATE], the Hepatotoxicity result is given as “DILI positive (training set)”.

In the case of `CN(C)CCCN1c2ccccc2Sc2ccc(Cl)cc21` [CHLORPROMAZINE], the Hepatotoxicity result is recorded as “DILI positive (training set)”.

Take `CCCNC(=O)NS(=O)(=O)c1ccc(Cl)cc1` [CHLORPROPAMIDE]: the Hepatotoxicity entry is given as “DILI positive (test set)”.

On to `CN(C)[C@@H]1C(O)=C(C(N)=O)C(=O)[C@@]2(O)C(O)=C3C(=O)c4c(O)ccc(Cl)c4[C@@](C)(O)[C@H]3C[C@@H]12.Cl` [CHLORTETRACYCLINE HYDROCHLORIDE], for which the Hepatotoxicity entry is recorded as “DILI positive (training set)”.

`Cc1cc(C2CCCCC2)n(O)c(=O)c1` [CICLOPIROX]: the Hepatotoxicity entry is listed as “DILI negative (training set)”.

Turning to `CC1(COc2ccc(CC3SC(=O)NC3=O)cc2)CCCCC1` (configuration not stated) [CIGLITAZONE], the Hepatotoxicity result was “DILI positive (test set)”.

With `O=C(O)c1cc(-c2ccccc2)nc2ccccc12` [CINCHOPHEN], the Hepatotoxicity result is reported as “DILI positive (test set)”.

With `CC(C)(Oc1ccc(C2CC2(Cl)Cl)cc1)C(=O)O` (configuration not stated) [CIPROFIBRATE], the Hepatotoxicity entry is reported as “DILI positive (training set)”.

On to `COc1cc(N)c(Cl)cc1C(=O)NC1CCN(CCCOc2ccc(F)cc2)CC1OC` (configuration not stated) [CISAPRIDE], for which the Hepatotoxicity result is given as “DILI negative (training set)”.

As to `CN(C)CCCC1(c2ccc(F)cc2)OCc2cc(C#N)ccc21` (configuration not stated) [CITALOPRAM], the Hepatotoxicity entry was “DILI negative (training set)”.

Regarding `C[N+](C)(C)CCOP(=O)(O)OP(=O)([O-])OC[C@H]1O[C@@H](n2ccc(N)nc2=O)[C@H](O)[C@@H]1O` [CITICOLINE], the Hepatotoxicity result is “DILI negative (test set)”.

Regarding `Nc1nc(Cl)nc2c1ncn2[C@H]1C[C@H](O)[C@@H](CO)O1` [CLADRIBINE], the Hepatotoxicity result is recorded as “DILI negative (training set)”.

For `CC[C@H]1OC(=O)[C@H](C)[C@@H](O[C@H]2C[C@@](C)(OC)[C@@H](O)[C@H](C)O2)[C@H](C)[C@@H](O[C@@H]2O[C@H](C)C[C@H](N(C)C)[C@H]2O)[C@](C)(OC)C[C@@H](C)C(=O)[C@H](C)[C@@H](O)[C@]1(C)O` [CLARITHROMYCIN], the Hepatotoxicity result was “DILI positive (test set)”.

Take `CN1CCC[C@@H]1CCO[C@](C)(c1ccccc1)c1ccc(Cl)cc1.O=C(O)/C=C/C(=O)O` [CLEMASTINE FUMARATE]: the Hepatotoxicity entry is on record as “DILI negative (test set)”.

As for `NC1CCN(c2c(F)cc3c(=O)c(C(=O)O)cn(C4CC4)c3c2Cl)C1` (configuration not stated) [CLINAFLOXACIN], the Hepatotoxicity result is “DILI negative (training set)”.

In the case of `CCC[C@@H]1C[C@@H](C(=O)N[C@@H]([C@H]2O[C@H](SC)[C@H](O)[C@@H](O)[C@H]2O)[C@H](C)Cl)N(C)C1.Cl` [CLINDAMYCIN HYDROCHLORIDE], the Hepatotoxicity result was “DILI positive (test set)”.

Turning to `CCOC(=O)C(C)(C)Oc1ccc(Cl)cc1` [CLOFIBRATE], the Hepatotoxicity result was “DILI positive (test set)”.

`CCN(CC)CCOc1ccc(C(=C(Cl)c2ccccc2)c2ccccc2)cc1` [CLOMIPHENE]: the Hepatotoxicity result is given as “DILI positive (training set)”.

Turning to `CN(C)CCCN1c2ccccc2CCc2ccc(Cl)cc21` [CLOMIPRAMINE], the Hepatotoxicity result is “DILI positive (training set)”.

`Clc1ccccc1C(c1ccccc1)(c1ccccc1)n1ccnc1` [CLOTRIMAZOLE]: the Hepatotoxicity result is listed as “DILI negative (training set)”.

As to `Cc1onc(-c2ccccc2Cl)c1C(=O)N[C@@H]1C(=O)N2[C@@H]1SC(C)(C)[C@@H]2C(=O)[O-].O.[Na+]` [CLOXACILLIN SODIUM], the Hepatotoxicity entry is given as “DILI positive (test set)”.

As for `CN1CCN(C2=Nc3cc(Cl)ccc3Nc3ccccc32)CC1` [CLOZAPINE], the Hepatotoxicity entry is recorded as “DILI positive (training set)”.

`COc1cc2c(c(OC)c1OC)-c1ccc(OC)c(=O)cc1[C@@H](NC(C)=O)CC2` [COLCHICINE]: the Hepatotoxicity result was “DILI negative (training set)”.

For the molecule `O=C(O)c1cc(=O)c2c(OCC(O)COc3cccc4oc(C(=O)O)cc(=O)c34)cccc2o1` [CROMOLYN], the Hepatotoxicity entry is reported as “DILI negative (training set)”.

Consider `CN1CCN(C(c2ccccc2)c2ccccc2)CC1` [CYCLIZINE], for which the Hepatotoxicity entry is recorded as “DILI positive (test set)”.

Turning to `CN1CCC(=C2c3ccccc3C=Cc3ccccc32)CC1.Cl` [CYPROHEPTADINE HYDROCHLORIDE], the Hepatotoxicity result was “DILI positive (training set)”.

With `CC(=O)O[C@]1(C(C)=O)CC[C@H]2[C@@H]3C=C(Cl)C4=CC(=O)[C@@H]5C[C@@H]5[C@]4(C)[C@H]3CC[C@@]21C` [CYPROTERONE ACETATE], the Hepatotoxicity entry is reported as “DILI positive (training set)”.

Turning to `C=C(C)[C@H]1CC=C(C)CC1` [D-LIMONENE], the Hepatotoxicity entry is on record as “DILI positive (test set)”.

As to `CN(C)/N=N/c1[nH]cnc1C(N)=O` [DACARBAZINE], the Hepatotoxicity result is given as “DILI positive (test set)”.

`Cc1c2oc3c(C)ccc(C(=O)N[C@@H]4C(=O)N[C@H](C(C)C)C(=O)N5CCC[C@H]5C(=O)N(C)CC(=O)N(C)[C@@H](C(C)C)C(=O)O[C@@H]4C)c3nc-2c(C(=O)N[C@@H]2C(=O)N[C@H](C(C)C)C(=O)N3CCC[C@H]3C(=O)N(C)CC(=O)N(C)[C@@H](C(C)C)C(=O)O[C@@H]2C)c(N)c1=O` [DACTINOMYCIN] (I: T[dV]P[Sar][NMeV] / II: T[dV]P[Sar][NMeV]; ester I:1-I:C, II:1-II:C; linker I:N-II:N via Actinocin(9to1)): the Hepatotoxicity entry is recorded as “DILI positive (test set)”.

Turning to `C#C[C@]1(O)CC[C@H]2[C@@H]3CCC4=Cc5oncc5C[C@]4(C)[C@H]3CC[C@@]21C` [DANAZOL], the Hepatotoxicity result was “DILI positive (training set)”.

In the case of `O=C1CN(/N=C/c2ccc(-c3ccc([N+](=O)[O-])cc3)o2)C(=O)[N-]1.[Na+]` [DANTROLENE SODIUM], the Hepatotoxicity entry is “DILI positive (training set)”.

In the case of `CC(=O)N(O)CCCCCNC(=O)CCC(=O)N(O)CCCCCNC(=O)CCC(=O)N(O)CCCCCN.CS(=O)(=O)O` [DEFEROXAMINE MESYLATE], the Hepatotoxicity entry is “DILI positive (training set)”.

Consider `CN(C)[C@@H]1C(O)=C(C(N)=O)C(=O)[C@@]2(O)C(O)=C3C(=O)c4c(O)ccc(Cl)c4[C@@H](O)[C@H]3C[C@@H]12.Cl` [DEMECLOCYCLINE HYDROCHLORIDE], for which the Hepatotoxicity result is recorded as “DILI positive (training set)”.

Take `C[C@@H]1C[C@H]2[C@@H]3CCC4=CC(=O)C=C[C@]4(C)[C@@]3(F)[C@@H](O)C[C@]2(C)[C@@]1(O)C(=O)CO` [DEXAMETHASONE]: the Hepatotoxicity result was “DILI negative (training set)”.

Take `C[C@H](N)Cc1ccccc1.C[C@H](N)Cc1ccccc1.O=S(=O)(O)O` [DEXTROAMPHETAMINE SULFATE]: the Hepatotoxicity result is “DILI positive (test set)”.

On to `Br.COc1ccc2c(c1)[C@]13CCCC[C@@H]1[C@H](C2)N(C)CC3.O` [DEXTROMETHORPHAN HYDROBROMIDE], for which the Hepatotoxicity result was “DILI negative (training set)”.

In the case of `Cc1onc(-c2c(Cl)cccc2Cl)c1C(=O)N[C@@H]1C(=O)N2[C@@H]1SC(C)(C)[C@@H]2C(=O)[O-].O.[Na+]` [DICLOXACILLIN SODIUM], the Hepatotoxicity result is listed as “DILI positive (test set)”.

In the case of `O=c1[nH]cnc2c1ncn2[C@H]1CC[C@@H](CO)O1` [DIDANOSINE], the Hepatotoxicity result is reported as “DILI positive (training set)”.

For `CCN(CC)C(=O)N1CCN(C)CC1` [DIETHYLCARBAMAZINE], the Hepatotoxicity result is recorded as “DILI positive (training set)”.

Regarding `C[C@H]1O[C@@H](O[C@H]2[C@@H](O)C[C@H](O[C@H]3[C@@H](O)C[C@H](O[C@H]4CC[C@@]5(C)[C@H](CC[C@@H]6[C@@H]5C[C@@H](O)[C@]5(C)[C@@H](C7=CC(=O)OC7)CC[C@]65O)C4)O[C@@H]3C)O[C@@H]2C)C[C@H](O)[C@@H]1O` [DIGOXIN], the Hepatotoxicity entry is reported as “DILI negative (training set)”.

Take `COc1ccc([C@@H]2Sc3ccccc3N(CCN(C)C)C(=O)[C@@H]2OC(C)=O)cc1.Cl` [DILTIAZEM HYDROCHLORIDE]: the Hepatotoxicity entry is given as “DILI negative (training set)”.

`O=C1CCC(=O)N1c1cc(Cl)cc(Cl)c1` [DIMETHACHLON]: the Hepatotoxicity entry was “DILI positive (test set)”.

Still in this data set, the particulars now being: Liver.
Regarding `ClC(Cl)Cl` [CHLOROFORM], the Hepatotoxicity result was “DILI positive (test set)”.

For the molecule `CN/C(=N/CCSCc1nc[nH]c1C)NC#N` [CIMETIDINE], the Hepatotoxicity entry was “DILI negative (training set)”.

Turning to `Cl.Clc1cccc(Cl)c1NC1=NCCN1` [CLONIDINE HYDROCHLORIDE], the Hepatotoxicity result is given as “DILI positive (training set)”.

Regarding `O=P1(N(CCCl)CCCl)NCCCO1` (configuration not stated) [CYCLOPHOSPHAMIDE ANHYDROUS], the Hepatotoxicity result is on record as “DILI positive (training set)”.

For the molecule `Nc1ccc(S(=O)(=O)c2ccc(N)cc2)cc1` [DAPSONE], the Hepatotoxicity entry is listed as “DILI positive (training set)”.

As to `CNCCCN1c2ccccc2CCc2ccccc21` [DESIPRAMINE], the Hepatotoxicity result is on record as “DILI negative (training set)”.

Turning to `O=C(O)c1cc(-c2ccc(F)cc2F)ccc1O` [DIFLUNISAL], the Hepatotoxicity result is “DILI positive (training set)”.

Regarding `OCC(S)CS` (configuration not stated) [DIMERCAPROL], the Hepatotoxicity result was “DILI positive (test set)”.
